Measured values reported in patent US20130225611A1, “Compositions and Methods for Reducing Cancer Cell Proliferation and Modulating Importin-Beta Function” (THE REGENTS OF THE UNIVERSITY OF CALIFORNIA, priority 2011, published 2013).

Legend:
[1] = test system: spindle assembly around sperm chromosomes; assay: spindle assembly in metaphase-arrested Xenopus egg extracts; parameters: species or system Xenopus laevis; conditions: 100 μM importazole
Excerpt: In order to determine whether importazole also disrupts mitosis, importazole was first tested in metaphase-arrested Xenopus egg extracts, which rely heavily on a RanGTP gradient for spindle assembly around sperm chromosomes. […] The effect was similar to that of adding a truncated importin-β (amino acids 71-876), a version that no longer binds to RanGTP and therefore sequesters its cargoes. […] Thus, importazole caused dramatic effects on spindle assembly consistent with the known role of the importin-β/RanGTP pathway in the Xenopus egg extract system, and is not a general microtubule inhibitor.
(§1) Xenopus laevis egg extracts were prepared as described by Hannak et al. (2006) Nat. Protoc. 1:2305-2314. For in vitro spindle assembly, Xenopus laevis sperm DNA was added to egg extracts supplemented with rhodamine-labeled tubulin. Asters were formed by addition of 5% DMSO. DNA was stained with Hoechst dye. The formation of microtubule-based structures was assessed using epifluorescence microscopy after a 30-minute room temperature incubation. In vitro microtubule polymerization and pelleting assays were performed by incubating 25 μM bovine tubulin, 1 mM GTP, and 5% DMSO in BRB80 buffer (80 mM PIPES, 1 mM MgCl2, 1 mM EGTA, pH 6.8) at 37° C. for 30 minutes. Polymerized microtubules were pelleted through a sucrose cushion, resuspended, and analyzed by SDS PAGE.

[2] = biological target: T1, interaction between RanGTP and importin-β (Homo sapiens, UniProt Q14974); assay: CFP-Ran/YFP-importin-β FRET assay; assay type: binding; conditions: spectrofluorimeter retest
T1 construct: made in house; host or cells: BL21 cells (E. coli)
Description: A reverse chemical genetic high-throughput screen (HTS) was performed to identify compounds that affect the interaction between RanGTP and importin-β using a fluorescence resonance energy transfer (FRET)-based assay with cyan fluorescent protein (CFP)-tagged Ran and yellow fluorescent protein (YFP)-tagged importin-β. These proteins bind one another only when CFP-Ran is guanosine triphosphate (GTP)-bound, which can be detected by changes in FRET (FIG. 1A and FIG. 1B). When CFP-Ran is incubated with RCC1, GTP, and YFP-importin-β, and the mixture is excited with 435 nm fluorescence in a fluorometer, a strong FRET signal is generated, as indicated by a decrease in the fluorescence intensity at 475 nm (the emission wavelength of CFP) and an increase in the fluorescence intensity at 525 nm (the emission wavelength of YFP). No FRET signal is generated if GDP is substituted for GTP, and nucleotide-specific interaction could also be observed biochemically, as S-tagged YFP-importin-β pulls CFP-Ran out of solution only in the presence of GTP. […]
The following reaction buffer was used for all FRET assays, including the high-throughput screen: 1× phosphate buffered saline (PBS), 5% glycerol, 2 mM MgCl2, 1 mM dithiothreitol (DTT), 0.01% NP-40. […] The reaction was excited using a Fluorolog 3 spectrofluorometer with 435 nm fluorescence and the emission was read between 460 nm and 550 nm. […]

[3] = test system: bovine tubulin; assay: pure tubulin polymerization and pelleting assay; assay type: biochemical; conditions: 25 μM bovine tubulin, 5% DMSO, pelleting, SDS PAGE
Description: as §1

[4] = biological target: T2, CRM1 (Homo sapiens, UniProt O14980); assay: fluorescent thermal shift assay (Sypro Orange), CRM1; assay type: binding; conditions: 2 μM protein, 50 μM importazole
T2 construct: made in house; host or cells: SG13 cells (E. coli)
Description: Experiments were performed using Applied Biosystems StepOnePlus™ Real-Time polymerase chain reaction (RT-PCR) System. Protein stocks were diluted in PBS and added 70% v/v to a Microamp® Fast 96-well Reaction Plate and maintained on ice. Compounds (importazole and control compound 3016) were then added at 30% v/v in 3% DMSO. Freshly prepared 100× water based-dilution of Sypro® Orange Protein Gel Stain was then added at 1% v/v to reach a final reaction volume of 20 μl. Samples were mixed by gentle pipetting. After sealing the plates with Microamp™ Optical Adhesive Film, the plate was subjected to a heating cycle composed of a 10 sec prewarming step at 25° C. and a gradient between 25° C. and 95° C. with a 0.3° C. ramp. Data was analyzed using the StepOnePlus™ Software v2.1.

T2 sequence (O14980 whole entry, species assumed): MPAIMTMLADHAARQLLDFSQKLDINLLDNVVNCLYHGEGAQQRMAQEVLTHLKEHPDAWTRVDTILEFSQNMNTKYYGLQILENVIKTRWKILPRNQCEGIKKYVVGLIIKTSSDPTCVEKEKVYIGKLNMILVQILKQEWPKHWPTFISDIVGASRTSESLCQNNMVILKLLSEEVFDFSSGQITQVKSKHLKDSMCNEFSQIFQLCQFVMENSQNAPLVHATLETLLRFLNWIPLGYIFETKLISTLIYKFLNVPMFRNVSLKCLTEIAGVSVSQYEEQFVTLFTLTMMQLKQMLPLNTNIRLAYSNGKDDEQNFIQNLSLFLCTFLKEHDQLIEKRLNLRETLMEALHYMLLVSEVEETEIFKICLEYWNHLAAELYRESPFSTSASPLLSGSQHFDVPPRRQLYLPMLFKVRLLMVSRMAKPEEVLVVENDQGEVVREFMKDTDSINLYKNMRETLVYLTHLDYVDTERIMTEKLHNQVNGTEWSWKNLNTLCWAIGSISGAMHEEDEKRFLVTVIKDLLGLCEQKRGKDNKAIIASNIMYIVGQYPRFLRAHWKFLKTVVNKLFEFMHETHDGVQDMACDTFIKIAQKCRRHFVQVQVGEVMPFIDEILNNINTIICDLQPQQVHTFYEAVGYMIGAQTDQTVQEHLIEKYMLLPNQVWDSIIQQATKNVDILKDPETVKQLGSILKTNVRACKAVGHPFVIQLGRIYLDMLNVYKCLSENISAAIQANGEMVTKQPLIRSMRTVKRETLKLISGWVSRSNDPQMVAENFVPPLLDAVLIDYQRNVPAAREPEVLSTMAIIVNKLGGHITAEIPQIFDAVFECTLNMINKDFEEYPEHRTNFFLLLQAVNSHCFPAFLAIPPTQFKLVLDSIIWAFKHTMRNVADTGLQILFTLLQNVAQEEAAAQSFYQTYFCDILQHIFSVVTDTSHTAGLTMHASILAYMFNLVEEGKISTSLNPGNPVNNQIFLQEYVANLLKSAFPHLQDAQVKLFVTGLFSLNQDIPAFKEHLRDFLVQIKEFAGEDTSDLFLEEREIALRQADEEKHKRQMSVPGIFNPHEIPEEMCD

- effect on FRET signal generated by CFP-Ran and YFP-importin-β [2]: reproducibly disrupted the FRET signal
SMILES: CC(Nc1nc(N2CCCC2)nc2ccccc12)c1ccccc1 (stereo not shown) [importazole, (1-phenyl-ethyl)-(2-pyrrolidin-1-yl-quinazolin-4-yl)-amine]
- sperm nuclei at which normal bipolar microtubule structures were prevented from forming [1]: 80%
- polymerization of pure microtubules [3]: does not Affect Pure Microtubules
- effect on melting curve of CRM1 [4]: did not significantly affect the melting curves
